A value given as a limit tells only on which side of the number the result lay.

In general, IC50 refers to the midpoint of a concentration-inhibition curve. What is called Ki is the dissociation constant of the complex between target and ligand, obtained from inhibition or displacement. The efflux ratio is a quotient of directional permeabilities that is used to spot active efflux. As usually defined, the Kp is tissue or fluid exposure divided by exposure in the circulation.

Data set [1] can be described thus: Metabolic stability in rat liver microsomes assessed as parent compound remaining at 0.5 uM incubated for 10 mins in presence of NADPH by LC-MS/MS analysis. The class given is ADME, Microsome. The settings on record: read-out: Stability. (Liver microsomes are a subcellular fraction often used to study metabolism.)
Data set [2] in a line: Metabolic stability in mouse liver microsomes assessed as parent compound remaining at 0.5 uM incubated for 10 mins in presence of NADPH by LC-MS/MS analysis. The class given is ADME, Microsome. The conditions noted are these: liver microsomes, read-out: Stability.
The target of data set [3] is T1, AP2-associated protein kinase 1 (Homo sapiens, UniProt Q2M2I8). Briefly: Inhibition of full length human AAK1 expressed in HEK293F cells assessed as suppression of AP2 phosphorylation measured after 3 hrs by Western blot analysis based cellular assay. It counts as cell-based.
T1 sequence (Q2M2I8 whole entry): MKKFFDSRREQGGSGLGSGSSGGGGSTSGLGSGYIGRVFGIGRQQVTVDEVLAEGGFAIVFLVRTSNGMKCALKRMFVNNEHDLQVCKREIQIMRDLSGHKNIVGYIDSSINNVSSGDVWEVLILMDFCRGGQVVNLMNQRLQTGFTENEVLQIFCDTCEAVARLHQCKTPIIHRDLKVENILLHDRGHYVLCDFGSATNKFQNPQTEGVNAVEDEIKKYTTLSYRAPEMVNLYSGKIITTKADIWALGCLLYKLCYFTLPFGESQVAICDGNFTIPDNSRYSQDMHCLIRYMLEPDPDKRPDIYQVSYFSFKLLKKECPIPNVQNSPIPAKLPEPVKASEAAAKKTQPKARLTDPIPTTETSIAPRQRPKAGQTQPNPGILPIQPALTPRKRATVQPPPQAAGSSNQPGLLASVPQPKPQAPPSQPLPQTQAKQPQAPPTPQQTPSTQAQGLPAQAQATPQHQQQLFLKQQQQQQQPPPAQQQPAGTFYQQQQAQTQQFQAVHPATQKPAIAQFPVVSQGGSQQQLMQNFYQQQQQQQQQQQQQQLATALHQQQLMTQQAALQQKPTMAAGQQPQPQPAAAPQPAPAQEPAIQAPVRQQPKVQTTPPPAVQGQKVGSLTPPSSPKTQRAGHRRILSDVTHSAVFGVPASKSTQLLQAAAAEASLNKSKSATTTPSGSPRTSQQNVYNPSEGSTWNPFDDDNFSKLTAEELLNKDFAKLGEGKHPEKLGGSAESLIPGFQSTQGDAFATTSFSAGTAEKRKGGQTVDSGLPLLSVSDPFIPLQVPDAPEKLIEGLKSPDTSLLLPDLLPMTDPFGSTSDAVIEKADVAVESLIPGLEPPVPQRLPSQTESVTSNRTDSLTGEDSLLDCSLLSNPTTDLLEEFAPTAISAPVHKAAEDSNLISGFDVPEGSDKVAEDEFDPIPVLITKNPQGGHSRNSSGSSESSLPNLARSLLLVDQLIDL
The target of data set [4] is AP2-associated protein kinase 1 (Mus musculus, UniProt Q3UHJ0). Briefly: Displacement of 3H-LP-927443 from AAK1 in C57BL6 mouse brain homogenate assessed as inhibition constant incubated for 1 hr by liquid scintillation counter analysis. The class given is tissue-based. On the technique in general: Displacement assays read how much labelled ligand stays bound in the presence of the test substance.
Chain of AP2-associated protein kinase 1 (Mus musculus, UniProt Q3UHJ0) (Q3UHJ0 whole entry): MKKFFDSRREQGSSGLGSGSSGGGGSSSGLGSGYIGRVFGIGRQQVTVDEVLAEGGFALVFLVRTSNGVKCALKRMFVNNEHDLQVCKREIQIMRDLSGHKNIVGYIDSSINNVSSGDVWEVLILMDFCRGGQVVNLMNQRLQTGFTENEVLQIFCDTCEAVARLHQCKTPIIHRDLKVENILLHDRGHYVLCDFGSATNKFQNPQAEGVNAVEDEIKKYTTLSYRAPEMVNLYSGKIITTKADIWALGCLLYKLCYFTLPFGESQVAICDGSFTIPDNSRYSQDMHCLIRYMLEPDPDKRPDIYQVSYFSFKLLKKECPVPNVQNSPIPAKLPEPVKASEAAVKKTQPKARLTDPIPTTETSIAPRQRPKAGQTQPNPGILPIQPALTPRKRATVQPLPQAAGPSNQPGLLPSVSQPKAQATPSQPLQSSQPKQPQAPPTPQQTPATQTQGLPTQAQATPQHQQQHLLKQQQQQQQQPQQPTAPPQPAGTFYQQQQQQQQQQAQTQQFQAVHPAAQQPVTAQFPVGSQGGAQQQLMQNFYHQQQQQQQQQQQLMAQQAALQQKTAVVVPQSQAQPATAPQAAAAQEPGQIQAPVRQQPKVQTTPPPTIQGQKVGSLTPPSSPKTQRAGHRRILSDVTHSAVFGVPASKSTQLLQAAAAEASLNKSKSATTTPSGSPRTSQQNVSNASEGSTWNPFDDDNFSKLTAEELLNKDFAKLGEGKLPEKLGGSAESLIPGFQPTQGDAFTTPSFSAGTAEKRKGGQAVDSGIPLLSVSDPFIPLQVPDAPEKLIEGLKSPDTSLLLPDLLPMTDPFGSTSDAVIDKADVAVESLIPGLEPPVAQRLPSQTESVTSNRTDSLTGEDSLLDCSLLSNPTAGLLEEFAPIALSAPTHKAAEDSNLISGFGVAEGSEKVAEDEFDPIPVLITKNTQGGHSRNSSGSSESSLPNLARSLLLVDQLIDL

For data set [5], the target named is Cytochrome P450 3A4 (Homo sapiens, UniProt P08684). Briefly: Inhibition of CYP3A4 (unknown origin) incubated for 10 mins in presence of NADPH by LC-MS/MS analysis. The class given is ADME.
Chain of Cytochrome P450 3A4 (P08684 whole entry): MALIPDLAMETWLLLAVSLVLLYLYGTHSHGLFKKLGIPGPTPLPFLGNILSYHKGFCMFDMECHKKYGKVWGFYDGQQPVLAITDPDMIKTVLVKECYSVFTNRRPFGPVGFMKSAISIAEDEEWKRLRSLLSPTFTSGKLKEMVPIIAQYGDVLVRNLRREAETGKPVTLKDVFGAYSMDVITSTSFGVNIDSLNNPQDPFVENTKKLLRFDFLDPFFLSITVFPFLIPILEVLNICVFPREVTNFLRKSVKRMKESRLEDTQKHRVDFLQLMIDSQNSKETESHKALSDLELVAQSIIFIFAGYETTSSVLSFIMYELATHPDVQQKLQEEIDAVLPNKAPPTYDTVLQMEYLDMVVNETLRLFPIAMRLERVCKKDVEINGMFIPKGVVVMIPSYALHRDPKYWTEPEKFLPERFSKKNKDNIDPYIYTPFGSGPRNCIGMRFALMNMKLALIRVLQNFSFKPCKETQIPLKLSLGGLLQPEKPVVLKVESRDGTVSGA
A short description of data set [6]: Efflux ratio of permeability in human Caco-2 cells. The class given is ADME, cell-based. A general note: Caco-2 monolayers are a common model of the intestinal barrier.
A short description of data set [7]: Metabolic stability in human liver microsomes assessed as parent compound remaining at 0.5 uM incubated for 10 mins in presence of NADPH by LC-MS/MS analysis. It counts as ADME, Microsome. The settings on record: read-out: Stability.
The target in data set [8] is T1, AP2-associated protein kinase 1. Briefly: Inhibition of bacterially expressed GST-Xa-tagged human AAK1 using 5-FAM-labelled Aha-KEEQSQITSQVTGQIGWR-NH2 peptide as substrate incubated for 3 hrs in presence of ATP by electrophoretic analysis.
A short description of data set [9]: Ratio of drug concentration in brain to plasma in Sprague-Dawley rat at 3 mg/kg, po measured at 2 hrs post dose. It counts as ADME, organism-based.
For data set [10], the target named is Myosin light chain kinase 2, skeletal/cardiac muscle (Homo sapiens, UniProt Q9H1R3). Briefly: Inhibition of MYLK2 (unknown origin).
The nature of data set [11]: Cardiotoxicity in aortic ring (unknown origin) assessed as relaxation of phenylephrine induced aortic ring contraction at 10 uM incubated for 1 hr. It counts as toxicity, tissue-based, Aorta. Set-up: scale not given: the % may be the effect or the level left. The settings on record: human.
For data set [12], the target named is T2, Cyclin-G-associated kinase (Homo sapiens, UniProt O14976).
T2 sequence (O14976 whole entry): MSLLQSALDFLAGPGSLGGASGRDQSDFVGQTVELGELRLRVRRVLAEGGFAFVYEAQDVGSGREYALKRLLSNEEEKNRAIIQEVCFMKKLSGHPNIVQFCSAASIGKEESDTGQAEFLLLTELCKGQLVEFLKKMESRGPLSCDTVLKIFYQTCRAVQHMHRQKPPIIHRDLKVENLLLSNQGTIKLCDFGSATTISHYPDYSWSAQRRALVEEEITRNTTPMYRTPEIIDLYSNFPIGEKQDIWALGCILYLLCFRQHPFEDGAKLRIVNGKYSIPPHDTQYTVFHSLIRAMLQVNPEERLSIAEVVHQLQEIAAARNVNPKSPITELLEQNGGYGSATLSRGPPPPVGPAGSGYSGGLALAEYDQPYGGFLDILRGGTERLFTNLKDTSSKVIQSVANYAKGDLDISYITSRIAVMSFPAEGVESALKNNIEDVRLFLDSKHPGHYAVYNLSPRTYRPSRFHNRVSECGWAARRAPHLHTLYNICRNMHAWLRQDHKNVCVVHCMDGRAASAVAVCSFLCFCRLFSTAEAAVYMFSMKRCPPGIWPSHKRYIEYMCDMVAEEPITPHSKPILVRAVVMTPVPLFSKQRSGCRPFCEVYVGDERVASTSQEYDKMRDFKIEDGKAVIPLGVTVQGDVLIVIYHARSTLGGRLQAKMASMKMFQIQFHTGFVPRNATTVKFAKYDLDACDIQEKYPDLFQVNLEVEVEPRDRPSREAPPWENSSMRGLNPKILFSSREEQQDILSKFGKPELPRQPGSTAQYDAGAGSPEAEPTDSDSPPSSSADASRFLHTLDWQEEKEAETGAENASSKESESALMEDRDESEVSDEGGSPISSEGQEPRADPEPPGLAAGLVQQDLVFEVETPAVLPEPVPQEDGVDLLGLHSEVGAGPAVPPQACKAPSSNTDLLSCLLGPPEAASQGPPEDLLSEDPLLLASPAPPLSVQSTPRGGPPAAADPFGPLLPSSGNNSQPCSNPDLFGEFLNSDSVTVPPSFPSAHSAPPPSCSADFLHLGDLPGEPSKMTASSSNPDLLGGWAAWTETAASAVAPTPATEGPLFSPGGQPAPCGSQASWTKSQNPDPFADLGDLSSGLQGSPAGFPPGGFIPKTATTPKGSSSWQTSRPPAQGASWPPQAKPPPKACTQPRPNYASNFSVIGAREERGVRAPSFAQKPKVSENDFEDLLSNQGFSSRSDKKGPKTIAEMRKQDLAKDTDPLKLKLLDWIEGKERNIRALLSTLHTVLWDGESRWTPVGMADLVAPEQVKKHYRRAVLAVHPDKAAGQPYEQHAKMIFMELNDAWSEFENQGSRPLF
Briefly: Inhibition of GAK (unknown origin).

Data set [13] has as its target TRAF2 and NCK-interacting protein kinase (Homo sapiens, UniProt Q9UKE5). Briefly: Inhibition of TNIK (unknown origin).
In data set [14] the target is MAP kinase-interacting serine/threonine-protein kinase 1 (Homo sapiens, UniProt Q9BUB5). Briefly: Inhibition of MNK1 (unknown origin).
Chain of MAP kinase-interacting serine/threonine-protein kinase 1 (Q9BUB5 whole entry): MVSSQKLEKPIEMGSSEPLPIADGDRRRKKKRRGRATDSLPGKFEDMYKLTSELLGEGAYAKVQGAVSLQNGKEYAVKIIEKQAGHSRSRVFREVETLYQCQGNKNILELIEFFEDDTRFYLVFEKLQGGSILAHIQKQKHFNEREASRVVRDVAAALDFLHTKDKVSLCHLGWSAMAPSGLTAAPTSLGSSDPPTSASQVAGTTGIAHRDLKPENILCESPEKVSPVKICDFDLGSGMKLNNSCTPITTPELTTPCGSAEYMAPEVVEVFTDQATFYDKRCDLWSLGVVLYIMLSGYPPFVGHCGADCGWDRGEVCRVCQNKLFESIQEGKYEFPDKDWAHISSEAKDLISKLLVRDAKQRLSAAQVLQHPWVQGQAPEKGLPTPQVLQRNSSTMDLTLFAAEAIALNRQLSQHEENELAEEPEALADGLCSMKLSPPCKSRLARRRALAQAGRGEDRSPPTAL
For data set [15], the target named is Citron Rho-interacting kinase (Homo sapiens, UniProt O14578). Briefly: Inhibition of CRIK (unknown origin).
Chain of Citron Rho-interacting kinase (O14578 whole entry): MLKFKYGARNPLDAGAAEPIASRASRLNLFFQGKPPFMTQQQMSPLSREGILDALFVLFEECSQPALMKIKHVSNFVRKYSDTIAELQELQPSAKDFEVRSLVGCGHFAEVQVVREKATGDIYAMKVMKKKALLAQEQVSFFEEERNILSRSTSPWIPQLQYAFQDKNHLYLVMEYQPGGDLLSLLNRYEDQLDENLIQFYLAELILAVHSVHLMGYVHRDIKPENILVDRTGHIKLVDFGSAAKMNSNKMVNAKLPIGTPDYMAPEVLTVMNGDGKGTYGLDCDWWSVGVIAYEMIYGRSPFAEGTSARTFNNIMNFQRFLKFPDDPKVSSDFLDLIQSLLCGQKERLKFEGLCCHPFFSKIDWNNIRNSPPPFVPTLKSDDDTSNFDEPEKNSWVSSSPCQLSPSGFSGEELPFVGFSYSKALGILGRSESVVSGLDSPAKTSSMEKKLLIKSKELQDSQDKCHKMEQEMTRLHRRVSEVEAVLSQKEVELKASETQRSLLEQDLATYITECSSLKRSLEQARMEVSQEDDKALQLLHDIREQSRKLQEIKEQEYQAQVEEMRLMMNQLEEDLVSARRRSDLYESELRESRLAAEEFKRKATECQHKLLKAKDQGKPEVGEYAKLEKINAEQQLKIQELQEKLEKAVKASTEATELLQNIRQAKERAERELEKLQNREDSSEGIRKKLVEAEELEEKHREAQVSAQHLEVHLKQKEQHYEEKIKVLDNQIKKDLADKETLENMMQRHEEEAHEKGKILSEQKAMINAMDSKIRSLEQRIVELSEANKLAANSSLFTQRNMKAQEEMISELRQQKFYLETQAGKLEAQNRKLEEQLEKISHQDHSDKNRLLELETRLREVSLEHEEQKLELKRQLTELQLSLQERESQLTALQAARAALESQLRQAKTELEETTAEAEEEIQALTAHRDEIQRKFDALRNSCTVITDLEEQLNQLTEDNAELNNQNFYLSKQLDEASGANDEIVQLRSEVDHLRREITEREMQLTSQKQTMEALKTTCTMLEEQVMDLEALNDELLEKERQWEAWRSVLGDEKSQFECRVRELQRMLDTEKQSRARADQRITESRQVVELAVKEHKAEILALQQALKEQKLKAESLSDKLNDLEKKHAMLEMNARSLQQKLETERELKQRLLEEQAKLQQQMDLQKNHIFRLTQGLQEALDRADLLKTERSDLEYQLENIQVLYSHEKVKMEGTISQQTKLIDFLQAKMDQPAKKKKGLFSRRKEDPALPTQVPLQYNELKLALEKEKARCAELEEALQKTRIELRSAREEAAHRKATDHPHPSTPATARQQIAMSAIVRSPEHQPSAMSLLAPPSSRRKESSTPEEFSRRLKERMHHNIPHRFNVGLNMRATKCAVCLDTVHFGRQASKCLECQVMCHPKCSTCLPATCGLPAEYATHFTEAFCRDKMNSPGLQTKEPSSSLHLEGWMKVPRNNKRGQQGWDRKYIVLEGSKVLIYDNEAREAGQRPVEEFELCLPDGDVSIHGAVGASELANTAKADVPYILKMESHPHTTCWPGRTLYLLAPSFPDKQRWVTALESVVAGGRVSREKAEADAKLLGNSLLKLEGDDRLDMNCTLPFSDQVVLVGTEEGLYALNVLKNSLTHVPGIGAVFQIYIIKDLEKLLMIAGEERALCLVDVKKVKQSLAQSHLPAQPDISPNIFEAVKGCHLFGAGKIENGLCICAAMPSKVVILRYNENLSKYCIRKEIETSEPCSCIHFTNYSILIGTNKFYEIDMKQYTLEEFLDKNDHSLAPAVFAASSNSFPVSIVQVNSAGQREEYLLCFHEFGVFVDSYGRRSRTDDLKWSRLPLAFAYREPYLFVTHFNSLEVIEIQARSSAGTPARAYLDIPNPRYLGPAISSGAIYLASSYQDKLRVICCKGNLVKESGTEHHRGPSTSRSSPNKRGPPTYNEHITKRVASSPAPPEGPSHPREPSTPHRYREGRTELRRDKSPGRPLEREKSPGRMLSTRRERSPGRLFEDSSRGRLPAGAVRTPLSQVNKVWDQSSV
In data set [16] the target is Rho-associated protein kinase 2 (Homo sapiens, UniProt O75116). Briefly: Inhibition of ROCK2 (unknown origin).
Data set [17] has as its target BMP-2-inducible protein kinase (Homo sapiens, UniProt Q9NSY1). Briefly: Inhibition of BIKE (unknown origin).
Data set [18] can be described thus: Ratio of drug concentration in spinal cord to plasma in STZ-induced diabetic peripheral neuropathic mechanical allodynia in overnight fasted Sprague-Dawley rat at 1 mg/kg, po measured at 5.75 hrs post dose. The class given is ADME, organism-based.
Data set [19] can be described thus: Drug concentration in STZ-induced diabetic peripheral neuropathic mechanical allodynia in overnight fasted Sprague-Dawley rat spinal cord at 1 mg/kg, po measured at 5.75 hrs post dose. The conditions noted are these: read-out: Ct. The class given is ADME, organism-based.
Data set [20] can be described thus: Plasma concentration in STZ-induced diabetic peripheral neuropathic mechanical allodynia in overnight fasted Sprague-Dawley rat at 1 mg/kg, po measured at 5.75 hrs post dose. The class given is ADME, organism-based.

In the case of `COc1cc(-c2ccnc(NC(C)=O)c2)ccc1OC[C@@H](N)CC(C)C`, the remaining at 10 min, 0.5 µM in data set [1] was determined as 92%; in data set [2], 58%; in [7] it was 96%. For the same compound, the 50% inhibitory concentration (IC50) in data set [3] was 3.8 nM; in data set [5] it was 6.9 µM. Moreover, the inhibitory constant (Ki) in [4] was determined as 0.96 nM. The efflux ratio in [6] stood at 4.2.
Consider `COC(=O)Nc1cc(-c2ccc(OC[C@@](C)(N)CC(C)C)c(C3CC3)c2)ccn1`, for which the remaining at 10 min, 0.5 µM in data set [1] is 80%; in [2], 33%; in data set [7], 100%. For the same compound, the half-maximal inhibitory concentration (IC50) in data set [3] was determined as 1 nM; in data set [5], 16.3 µM; in [8] it was 0.4 nM. For the same compound, the Ki in data set [4] turned out to be 0.05 nM.
Take `CC(=O)Nc1cc(-c2ccc(OC[C@@H](N)CC(C)C)c(C#N)c2)ccn1`: the remaining at 10 min, 0.5 µM in data set [1] stood at 83%; in data set [2], 84%; in [7], 87%. In addition, the values for the IC50 in data set [3] and in data set [5] were 0.5 nM and 2.6 µM, respectively. In data set [4], the Ki worked out at 0.04 nM. The partition ratio (Kp) at 2 h in [9] worked out at 0.45. In addition, the efflux ratio in [6] came to 6.3.
For the compound `CC(=O)Nc1cc(-c2ccc(OC[C@@](C)(N)CC(C)C)c(C#N)c2)ccn1`, the remaining at 10 min, 0.5 µM in data set [1] is 78%; in [2] it was 71%; in data set [7], 64%. The IC50 was 0.6 nM in data set [3], more than 20 µM in data set [5] and 0.6 nM in data set [8]. The inhibition constant Ki in data set [4] was 0.09 nM. The efflux ratio in data set [6] was determined as 2.5.
Take `Cc1cc(-c2ccnc(C(F)F)c2)ncc1OC[C@@](C)(N)CC(C)C`: the remaining at 10 min, 0.5 µM in data set [1] worked out at 76%; in data set [2] it was 80%; in data set [7], 83%. Moreover, the IC50 is 12 nM in data set [3], more than 20 µM in data set [5] and 1.4 nM in data set [8]. Further, the inhibitory constant (Ki) in [4] was found to be 0.3 nM.
As for `COC(=O)Nc1cc(-c2cc(C)c(OC[C@@](C)(N)CC(C)C)cn2)ccn1`, the remaining at 10 min, 0.5 µM in data set [1] stood at 100%; in data set [2] it was 99%; in [7] it was 100%. The 50% inhibitory concentration (IC50) in data set [10] came out at 600 nM; in data set [12] it was 1800 nM; in [3] it was 12 nM; in data set [13] it was 690 nM; in [14] it was 1300 nM; in [5], 13 µM. Moreover, the IC50 stood at 1.7 nM in data set [8], 60 nM in [15] and 780 nM in [16]. Besides, the Activity in [11] is recorded as 38%. Further, the Ki in [4] is 1.4 nM.
As to `Cc1cc(-c2cc(Cl)c(OC[C@@](C)(N)CC(C)C)cn2)ccn1`, the remaining at 10 min, 0.5 µM in [1] is 73%; in data set [2], 71%; in data set [7] it was 86%. In addition, the IC50 is 1500 nM in data set [17]; 1.9 nM in [3]; 1900 nM in data set [14]; more than 20 µM in [5]; 1300 nM in data set [15]. The Activity in data set [11] was 50%. The Ki in [4] came out at 0.7 nM.
Turning to `COC(=O)Nc1cc(-c2cnc(OC[C@@](C)(N)CC(C)C)c(OC)c2)ccn1` (racemic), the values for the remaining at 10 min, 0.5 µM in data set [1], in data set [2] and in data set [7] were 79%, 59% and 86%, respectively. The Activity in data set [11] came out at 91%. For the same compound, the Ki in [4] stood at 2.5 nM. Also, the figures for the concentration for half-maximal inhibition (IC50) in [5] and in data set [8] were more than 20 µM and 3.8 nM, respectively.
Regarding `COC(=O)Nc1cc(-c2ccc(OC[C@@](C)(N)CC(C)C)c(Cl)c2)ccn1` (racemic), the remaining at 10 min, 0.5 µM in data set [1] came out at 85%; in data set [2], 66%; in [7] it was 81%. Further, the concentration for half-maximal inhibition (IC50) was 1.4 nM in data set [3], 0.74 µM in data set [5] and 0.5 nM in data set [8]. For the same compound, the Ki in [4] is 0.09 nM.
As for `COC(=O)Nc1cc(-c2ccc(OC[C@@](C)(N)CC(C)C)c(C)c2)ccn1` (racemic), the remaining at 10 min, 0.5 µM amounted to 96% in data set [1], 75% in data set [2] and 98% in data set [7]. The half-inhibitory concentration (IC50) is 0.8 nM in [3], more than 20 µM in data set [5] and 0.8 nM in data set [8]. In [4], the Ki is 0.08 nM.
Regarding `CC(C)C[C@](C)(N)COc1ccc(-c2ccnc(C(F)F)c2)nc1C(F)F` [PILAVAPADIN], the Kp at 5.75 h in data set [18] stood at 2.9. Further, the results for the concentration at 5.75 h in data set [19] and in data set [20] were 245 nM and 84 nM, respectively.

The record behind these values is ChEMBL document CHEMBL5154787 (J Med Chem, 2022).
